The structures appear in SMILES notation. Bounds are passed on as bounds.

human TYK2 (JH2domain-pseudokinase), sequence (P29597 556-888): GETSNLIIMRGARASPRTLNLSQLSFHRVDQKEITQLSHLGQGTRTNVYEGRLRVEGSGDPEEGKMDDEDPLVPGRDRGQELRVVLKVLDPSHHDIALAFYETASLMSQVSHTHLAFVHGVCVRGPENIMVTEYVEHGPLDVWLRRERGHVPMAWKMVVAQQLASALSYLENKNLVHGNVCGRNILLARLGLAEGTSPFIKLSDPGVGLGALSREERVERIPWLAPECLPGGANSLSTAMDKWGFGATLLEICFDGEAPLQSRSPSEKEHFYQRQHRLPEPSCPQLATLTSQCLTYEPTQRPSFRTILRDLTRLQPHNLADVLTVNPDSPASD

For the test, the target named is human TYK2 (JH2domain-pseudokinase) (Homo sapiens (Human), UniProt P29597). Kind of test: TYK2 JH2 Domain Binding Assay (KINOMEscan, DiscoveRx). The settings on record: 11-point dilution, duplicate. The method, boiled down:
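Kd from duplicate 11-point 3-fold dilutions starting at 30,000 nM, fitted by Hill equation with slope fixed at −1. Compounds (final 0.9% DMSO) displace DNA-tagged HEK293-expressed TYK2 JH2 fusion (<0.1 nM) from ligand-coated beads over 1 h at room temperature; eluted kinase read by qPCR.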
For the compound `CS(=O)(=O)c1cc(-c2ccn(C3CC3)n2)ccc1Nc1cc(NC(=O)C2CC2)nc2[nH]c(C(F)F)nc12` [I-287, N-(7-((4-(1-cyclopropyl-1H-pyrazol-3-yl)-2-(methylsulfonyl)phenyl)amino)-2-(difluoromethyl)-3H-imidazo[4,5-b]pyridin-5-yl)cyclopropanecarboxamide], the Kd (commonly the concentration at which binding is half-saturated) is 100 to 500 pM.
The value for `Cc1csc(-c2ccc(Nc3cc(NC(=O)C4CC4)nc4[nH]c(C(F)F)nc34)c(S(C)(=O)=O)c2)n1` [I-288, N-(2-(difluoromethyl)-7-((2-(methylsulfonyl)-4-(4-methylthiazol-2-yl)phenyl)amino)-3H-imidazo[4,5-b]pyridin-5-yl)cyclopropanecarboxamide] was 100 to 500 pM.
Next, `Cc1csc(-c2ccc(Nc3cc(NC(=O)C4CC4)nc4[nH]c(C)nc34)c(S(C)(=O)=O)c2)n1` [I-289, N-(2-methyl-7-((2-(methylsulfonyl)-4-(4-methylthiazol-2-yl)phenyl)amino)-3H-imidazo[4,5-b]pyridin-5-yl)cyclopropanecarboxamide]: 100 to 500 pM; `Cc1cc(-c2ccc(Nc3cc(Nc4cccc(C(F)(F)F)n4)nc4[nH]c(C(F)F)nc34)c(S(C)(=O)=O)c2)nn1C` [I-290, 2-(difluoromethyl)-N7-(4-(1,5-dimethyl-1H-pyrazol-3-yl)-2-(methylsulfonyl)phenyl)-N5-(6-(trifluoromethyl)pyridin-2-yl)-3H-imidazo[4,5-b]pyridine-5,7-diamine]: 500 to 1000 pM.
Next, `Cc1nc2c(Nc3ccc([C@@H]4CCOC4)cc3S(C)(=O)=O)cc(NC(=O)C3CC3)nc2[nH]1` [I-291, (S)—N-(2-methyl-7-((2-(methylsulfonyl)-4-(tetrahydrofuran-3-yl)phenyl)amino)-3H-imidazo[4,5-b]pyridin-5-yl)cyclopropanecarboxamide]: 500 to 1000 pM; `Cc1nc2c(Nc3ccc([C@H]4CCOC4)cc3S(C)(=O)=O)cc(NC(=O)C3CC3)nc2[nH]1` [I-292, (R)—N-(2-methyl-7-((2-(methylsulfonyl)-4-(tetrahydrofuran-3-yl)phenyl)amino)-3H-imidazo[4,5-b]pyridin-5-yl)cyclopropanecarboxamide]: 1000 to 10000 pM.
Regarding `CS(=O)(=O)c1cc(C2CCOCC2)ccc1Nc1cc(NC(=O)[C@@H]2CC2(F)F)nc2[nH]c(C(F)F)nc12` [I-293, (S)—N-(2-(difluoromethyl)-7-((2-(methylsulfonyl)-4-(tetrahydro-2H-pyran-4-yl)phenyl)amino)-3H-imidazo[4,5-b]pyridin-5-yl)-2,2-difluorocyclopropane-1-carboxamide], the Kd is 1000 to 10000 pM.
The value for `CS(=O)(=O)c1cc(C2CCOCC2)ccc1Nc1cc(NC(=O)[C@H]2CC2(F)F)nc2[nH]c(C(F)F)nc12` [I-294, (R)—N-(2-(difluoromethyl)-7-((2-(methylsulfonyl)-4-(tetrahydro-2H-pyran-4-yl)phenyl)amino)-3H-imidazo[4,5-b]pyridin-5-yl)-2,2-difluorocyclopropane-1-carboxamide] was 1000 to 10000 pM.
Compound `COCCNc1ccc(Nc2cc(Nc3ccccc3N(C)S(C)(=O)=O)c3nc(C(F)F)[nH]c3n2)nc1C#N` [I-295, N-(2-((5-((6-cyano-5-((2-methoxyethyl)amino)pyridin-2-yl)amino)-2-(difluoromethyl)-3H-imidazo[4,5-b]pyridin-7-yl)amino)phenyl)-N-methylmethane sulfonamide] registered a Kd of 100 to 500 pM.
`COc1c(Nc2cc(NC(=O)[C@@H]3C[C@@H]3F)nc3[nH]c(C(F)F)nc23)cccc1-c1ncn(C)n1` [I-296, (1S,2S)—N-(2-(difluoromethyl)-7-((2-methoxy-3-(1-methyl-1H-1,2,4-triazol-3-yl)phenyl)amino)-3H-imidazo[4,5-b]pyridin-5-yl)-2-fluorocyclopropane-1-carboxamide] came in with a Kd of 500 to 1000 pM.
Next, `C[S@+]([O-])c1ccccc1Nc1cc(NC(=O)C2CC2)nc2[nH]c(C(F)F)nc12` [I-297, (S)—N-(2-(difluoromethyl)-7-((2-(methylsulfinyl)phenyl)amino)-3H-imidazo[4,5-b]pyridin-5-yl)cyclopropanecarboxamide]: 500 to 1000 pM; `C[S@@+]([O-])c1ccccc1Nc1cc(NC(=O)C2CC2)nc2[nH]c(C(F)F)nc12` [I-298, (R)—N-(2-(difluoromethyl)-7-((2-(methylsulfinyl)phenyl)amino)-3H-imidazo[4,5-b]pyridin-5-yl)cyclopropanecarboxamide]: more than 10000 pM; `Cc1nc2c(Nc3ccc(-c4cc(C)n(C)n4)cc3S(C)(=O)=O)cc(Nc3cccc(C(F)(F)F)n3)nc2[nH]1` [I-299, N7-(4-(1,5-dimethyl-1H-pyrazol-3-yl)-2-(methylsulfonyl)phenyl)-2-methyl-N5-(6-(trifluoromethyl)pyridin-2-yl)-3H-imidazo[4,5-b]pyridine-5,7-diamine]: 500 to 1000 pM.
Next, `Cc1ncc(Nc2cc(Nc3ccc(-c4cc(C)n(C)n4)cc3S(C)(=O)=O)c3nc(C(F)F)[nH]c3n2)nc1C` [I-300, 2-(difluoromethyl)-N7-(4-(1,5-dimethyl-1H-pyrazol-3-yl)-2-(methylsulfonyl)phenyl)-N5-(5,6-dimethylpyrazin-2-yl)-3H-imidazo[4,5-b]pyridine-5,7-diamine]: 100 to 500 pM; `Cn1cnc(-c2ccc(Nc3cc(NC(=O)[C@H]4C[C@H]4F)nc4[nH]c(C(F)F)nc34)c(S(C)(=O)=O)c2)c1` [I-301, (1R,2R)—N-(2-(difluoromethyl)-7-((4-(1-methyl-1H-imidazol-4-yl)-2-(methylsulfonyl)phenyl)amino)-3H-imidazo[4,5-b]pyridin-5-yl)-2-fluorocyclopropane-1-carboxamide]: 100 to 500 pM.
Next, `Cc1c(-c2ccc(Nc3cc(Nc4cccc(C#N)n4)nc4[nH]c(C(F)F)nc34)c(S(C)(=O)=O)c2)cnn1C` [I-302, 6-((2-(difluoromethyl)-7-((4-(1,5-dimethyl-1H-pyrazol-4-yl)-2-(methylsulfonyl)phenyl)amino)-3H-imidazo[4,5-b]pyridin-5-yl)amino)picolinonitrile]: 100 to 500 pM; `Cc1ccc(Nc2cc(Nc3ccc(-c4cc(C)n(C)n4)cc3S(C)(=O)=O)c3nc(C(F)F)[nH]c3n2)nc1C#N` [I-303, 6-((2-(difluoromethyl)-7-((4-(1,5-dimethyl-1H-pyrazol-3-yl)-2-(methylsulfonyl)phenyl)amino)-3H-imidazo[4,5-b]pyridin-5-yl)amino)-3-methylpicolinonitrile]: 500 to 1000 pM.
The compound `Cc1cnc(-c2ccc(Nc3cc(NC(=O)C4CC4)nc4[nH]c(C(F)F)nc34)c(S(C)(=O)=O)c2)s1` [I-304, N-(2-(difluoromethyl)-7-((2-(methylsulfonyl)-4-(5-methylthiazol-2-yl)phenyl)amino)-3H-imidazo[4,5-b]pyridin-5-yl)cyclopropanecarboxamide] returned a Kd of 500 to 1000 pM.
The value for `Cc1nc2c(Nc3ccc(-c4ncc(C)s4)cc3S(C)(=O)=O)cc(NC(=O)C3CC3)nc2[nH]1` [I-305, N-(2-methyl-7-((2-(methylsulfonyl)-4-(5-methylthiazol-2-yl)phenyl)amino)-3H-imidazo[4,5-b]pyridin-5-yl)cyclopropanecarboxamide] was 100 to 500 pM.
For the compound `CS(=O)(=O)c1cc([C@H]2CCCO2)ccc1Nc1cc(NC(=O)[C@@H]2CC2(F)F)nc2[nH]c(C(F)F)nc12` [I-306, (S)—N-(2-(difluoromethyl)-7-((2-(methylsulfonyl)-4-((R)-tetrahydrofuran-2-yl)phenyl)amino)-3H-imidazo[4,5-b]pyridin-5-yl)-2,2-difluorocyclopropane-1-carboxamide], the Kd was 500 to 1000 pM.
`CS(=O)(=O)c1cc([C@H]2CCCO2)ccc1Nc1cc(NC(=O)[C@H]2CC2(F)F)nc2[nH]c(C(F)F)nc12` [I-307, (R)—N-(2-(difluoromethyl)-7-((2-(methylsulfonyl)-4-((R)-tetrahydrofuran-2-yl)phenyl)amino)-3H-imidazo[4,5-b]pyridin-5-yl)-2,2-difluorocyclopropane-1-carboxamide] yielded a Kd of 1000 to 10000 pM.
The value for `Cc1c(-c2ccc(Nc3cc(NC(=O)[C@@H]4CC4(F)F)nc4[nH]c(C(F)F)nc34)c(S(C)(=O)=O)c2)cnn1C` [I-308, (S)—N-(2-(difluoromethyl)-7-((4-(1,5-dimethyl-1H-pyrazol-4-yl)-2-(methylsulfonyl)phenyl)amino)-3H-imidazo[4,5-b]pyridin-5-yl)-2,2-difluorocyclopropane-1-carboxamide] was 100 to 500 pM.
Next, `Cc1c(-c2ccc(Nc3cc(NC(=O)[C@H]4CC4(F)F)nc4[nH]c(C(F)F)nc34)c(S(C)(=O)=O)c2)cnn1C` [I-309, (R)—N-(2-(difluoromethyl)-7-((4-(1,5-dimethyl-1H-pyrazol-4-yl)-2-(methylsulfonyl)phenyl)amino)-3H-imidazo[4,5-b]pyridin-5-yl)-2,2-difluorocyclopropane-1-carboxamide]: 100 to 500 pM; `CS(=O)(=O)c1cc([C@H]2CCCOC2)ccc1Nc1cc(NC(=O)[C@H]2CC2(F)F)nc2[nH]c(C(F)F)nc12` [I-310, (R)—N-(2-(difluoromethyl)-7-((2-(methylsulfonyl)-4-((R)-tetrahydro-2H-pyran-3-yl)phenyl)amino)-3H-imidazo[4,5-b]pyridin-5-yl)-2,2-difluorocyclopropane-1-carboxamide]: 500 to 1000 pM.
Next, `CS(=O)(=O)c1cc([C@H]2CCCOC2)ccc1Nc1cc(NC(=O)[C@@H]2CC2(F)F)nc2[nH]c(C(F)F)nc12` [I-311, (S)—N-(2-(difluoromethyl)-7-((2-(methylsulfonyl)-4-((R)-tetrahydro-2H-pyran-3-yl)phenyl)amino)-3H-imidazo[4,5-b]pyridin-5-yl)-2,2-difluorocyclopropane-1-carboxamide]: 1000 to 10000 pM.
`Cc1nc2c(Nc3ccc(-c4nc(C)c(C)s4)cc3S(C)(=O)=O)cc(NC(=O)C3CC3)nc2[nH]1` [I-312, N-(7-((4-(4,5-dimethylthiazol-2-yl)-2-(methylsulfonyl)phenyl)amino)-2-methyl-3H-imidazo[4,5-b]pyridin-5-yl)cyclopropanecarboxamide] registered a Kd of 100 to 500 pM.
